Reference: patent US7026510B2, “Quaternary ammonium salts of omega-aminoalkylamides of r-2-aryl-propionic acids and pharmaceutical compositions containing them” (Dompé S.p.A., priority 2001, dated 2006)

System: C5a-induced chemotaxis of PMN
Assay: Inhibition of C5a-induced chemotaxis of human PMNs (microchamber)
Type: cell-based
Conditions: compound C = 10^−6 M, C5a 10^−9 M, 60 min at 37° C.
Protocol: The compounds of the invention of formula (I) were evaluated in vitro for their ability to inhibit chemotaxis of polymorphonucleate leukocytes (hereinafter referred to as PMNs) and monocytes induced by the fractions of the complement C5a and C5a-desArg. For this purpose, to isolate the PMNs from heparinized human blood, taken from healthy adult volunteers, mononucleates were removed by means of sedimentation on dextran (according to the procedure disclosed by W. J. Ming et al., J. Immunol., 138, 1469, 1987) and red blood cells by a hypotonic solution. The cell vitality was calculated by exclusion with Trypan blue, whilst the ratio of the circulating polymorphonucleates was estimated on the cytocentrifugate after staining with Diff Quick.
Human recombinant fractions C5a and C5a-desArg (Sigma) were used as stimulating agents in the chemotaxis experiments, giving practically identical results.
The lyophilized C5a was dissolved in a volume of HBSS containing 0.2% bovin serum albumin BSA so thus to obtain a stock solution having a concentration of 10^−5 M to be diluted in HBSS to a concentration of 10^−9 M, for the chemotaxis assays.
In the chemotaxis experiments, the PMNs were incubated with the compounds of the invention of formula (I) for 15′ at 37° C. in an atmosphere containing 5% CO2.
The chemotactic activity of the C5a was evaluated on human circulating polymorphonucleates (PMNs) resuspended in HBSS at a concentration of 1.5×10^6 PMNs per mL.
During the chemotaxis assay (according to W. Falket et al., J. Immunol. Methods, 33, 239, 1980) PVP-free filters with a porosity of 5 μm and microchambers suitable for replication were used.
The compounds of the invention in formula (I) were evaluated at a concentration ranging between 10^−6 and 10^−10 M; for this purpose they were added, at the same concentration, both to the lower pores and the upper pores of the microchamber. The wells in the lower part contain the solution of C5a or the simple carrier, those in the upper part contain the suspension of PMNs.
Inhibition of C5a-induced chemotactic activity by the individual compounds of the invention of formula (I) was evaluated by incubating the microchamber for the chemotaxis for 60 min at 37° C. in an atmosphere containing 5% CO2.
By way of example, the inhibition data of the chemotaxis of PMN (C=10^−6 M) of some representative compounds of the invention are reported in the following table: […]

Compound	% INHIBITION (C = 10^−6 M)	inhibition at 1 µM (Homo sapiens, 1 h)
CC(C)Cc1ccc([C@@H](C)C(=O)NCCC[N+](C)(C)C)cc1.[I-] [R(−)-{3-[2-(4′-isobutylphenyl)-propionylamino]-propyl}-trimetilammonium iodide]	53 ± 6%	–
R(−)-2-[(4′-isobutylphenyl)-propionylamino]-1,1-dimethylpiperidinium iodide	18 ± 9%	–
C[C@@H](C(=O)NCCC[N+](C)(C)C)c1ccccc1Nc1c(Cl)cccc1Cl [(R)-{3-{2-[2-(2,6-dichlorophenylamino)-phenyl]-propionylamino}-propyl)-trimethylammonium iodide]	–	62 ± 3%
CC(C)Cc1ccc([C@@H](C)C(=O)NCCC[N+]2(C)CCCCC2)cc1.[I-] [R(−)-{3-[2-(4′-isobutylphenyl)-propionylamino]-propyl}-1-methyl-piperidinium iodide]	24 ± 4%	–
CC(C)Cc1ccc([C@@H](C)C(=O)NCCC[N+](C)(C)Cc2ccccc2)cc1.[I-] [R(−)-{3-[2-(4′-isobutylphenyl)-propionylamino]-propyl}-(N-benzyl)-N,N-dimethylammonium iodide]	22 ± 4%	–
CC(C)Cc1ccc([C@@H](C)C(=O)NCCC[N+](C)(C)CC2CCCCC2)cc1.CS(=O)(=O)[O-] [R(−)-{3-[2-(4′-isobutylphenyl)-propionylamino]-propyl}-N-cyclohexylmethyl-N,N-dimethyl-ammonium metaneosulfonate]	57 ± 4%	–
